Measured values as given in patent US10259810B2, “N-sulfonylated pyrazolo[3,4-b]pyridin-6-carboxamides and method of use” (AbbVie S.à.r.l., priority 2015, dated 2019).

Assays:
ΔF508-CFTR [1] = target: T1, ΔF508-CFTR (Homo sapiens, UniProt P13569, DEL508-508); experiment: CFTR cell surface levels using HRP-tagged ΔF508-CFTR expressing CFBE cells, intrinsic corrector capacity; type: cell-based; set-up: % Activation: concentration or dose not given beside the values; details: HRP-tagged ΔF508-CFTR expressing CFBE41o- cells, compound alone (intrinsic corrector capacity), 20 hours at 33° C.; for EC50: read-out: EC50
T1 construct: host or cells: CFBE41o-, doxycycline-inducible
T1 sequence (P13569 with tags, fused parts or gaps DEL508-508): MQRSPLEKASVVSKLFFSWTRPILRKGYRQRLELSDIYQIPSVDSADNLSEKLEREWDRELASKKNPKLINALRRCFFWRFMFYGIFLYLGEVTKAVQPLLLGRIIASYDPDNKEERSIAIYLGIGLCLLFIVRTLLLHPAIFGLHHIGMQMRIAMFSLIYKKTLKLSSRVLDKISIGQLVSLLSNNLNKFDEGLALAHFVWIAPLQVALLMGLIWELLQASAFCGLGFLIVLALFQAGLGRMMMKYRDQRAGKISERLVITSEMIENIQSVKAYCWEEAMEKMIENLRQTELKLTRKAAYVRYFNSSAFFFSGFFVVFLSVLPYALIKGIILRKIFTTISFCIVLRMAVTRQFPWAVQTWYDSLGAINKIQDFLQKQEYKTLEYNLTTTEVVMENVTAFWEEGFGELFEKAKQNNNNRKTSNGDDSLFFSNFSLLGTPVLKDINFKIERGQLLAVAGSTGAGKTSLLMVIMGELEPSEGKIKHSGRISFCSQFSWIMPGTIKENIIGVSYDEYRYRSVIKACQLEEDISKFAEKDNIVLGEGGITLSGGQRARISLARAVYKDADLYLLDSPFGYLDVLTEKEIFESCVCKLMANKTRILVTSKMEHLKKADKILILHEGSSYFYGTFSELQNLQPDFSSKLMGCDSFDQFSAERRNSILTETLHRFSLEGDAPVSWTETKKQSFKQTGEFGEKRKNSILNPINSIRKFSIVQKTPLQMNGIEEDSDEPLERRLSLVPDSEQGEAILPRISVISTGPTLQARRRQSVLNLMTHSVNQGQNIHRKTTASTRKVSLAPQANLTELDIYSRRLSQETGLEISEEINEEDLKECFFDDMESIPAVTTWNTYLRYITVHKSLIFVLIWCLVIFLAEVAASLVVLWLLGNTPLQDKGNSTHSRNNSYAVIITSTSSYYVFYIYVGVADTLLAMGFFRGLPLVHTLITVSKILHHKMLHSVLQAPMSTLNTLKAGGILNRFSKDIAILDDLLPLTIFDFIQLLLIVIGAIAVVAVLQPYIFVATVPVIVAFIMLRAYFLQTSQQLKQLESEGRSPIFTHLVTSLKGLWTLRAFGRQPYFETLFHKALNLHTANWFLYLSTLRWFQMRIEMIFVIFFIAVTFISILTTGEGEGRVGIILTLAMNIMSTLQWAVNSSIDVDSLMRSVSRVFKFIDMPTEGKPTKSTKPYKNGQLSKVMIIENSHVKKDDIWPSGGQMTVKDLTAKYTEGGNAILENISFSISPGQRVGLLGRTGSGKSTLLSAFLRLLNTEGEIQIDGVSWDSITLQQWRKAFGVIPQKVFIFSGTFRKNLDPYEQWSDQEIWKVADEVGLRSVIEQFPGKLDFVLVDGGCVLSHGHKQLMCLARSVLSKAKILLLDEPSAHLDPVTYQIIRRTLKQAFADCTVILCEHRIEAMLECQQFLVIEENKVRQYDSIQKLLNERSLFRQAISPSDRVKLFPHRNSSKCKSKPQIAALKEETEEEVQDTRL
Outline: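 Surface ΔF508-CFTR was measured as HRP chemiluminescence from an extracellular-loop-4 tag, expressed as percent activity between DMSO and a […] corrector control.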

ΔF508-CFTR [2] = target: T1, ΔF508-CFTR; experiment: CFTR cell surface levels using HRP-tagged ΔF508-CFTR expressing CFBE cells, in the presence of a co-corrector; type: cell-based; details: HRP-tagged ΔF508-CFTR CFBE cells, in the presence of 3 μM co-corrector; for EC50: read-out: EC50
Outline: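 Chemiluminescent read-out of surface HRP (15 min, dark) after PBS washes. Activity is normalized as 100×(sample−DMSO)/(3 μM co-corrector alone−DMSO).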

SMILES	% Activation (ΔF508-CFTR [1]) [%]	EC50 (ΔF508-CFTR [1]) [nM]	% Activation (ΔF508-CFTR [2]) [%]	EC50 (ΔF508-CFTR [2]) [nM]
CC(C)c1nn(C2CCCCC2)c2nc(C(=O)NS(C)(=O)=O)cc(-c3cnc(N(C)C4CCOCC4)nc3)c12 [Compound 123, 1-cyclohexyl-N-(methanesulfonyl)-4-{2-[methyl(oxan-4-yl)amino]pyrimidin-5-yl}-3-(propan-2-yl)-1H-pyrazolo[3,4-b]pyridine-6-carboxamide]	153.8	428	365.8	239
CC(C)c1nn(-c2cccc(C(F)(F)F)c2)c2nc(C(=O)NS(C)(=O)=O)cc(-c3ccc(N4CCC(C#N)CC4)nc3)c12 [Compound 124, 4-[6-(4-cyanopiperidin-1-yl)pyridin-3-yl]-N-(methanesulfonyl)-3-(propan-2-yl)-1-[3-(trifluoromethyl)phenyl]-1H-pyrazolo[3,4-b]pyridine-6-carboxamide]	288.1	545	447.23	312
CC(C)c1nn(-c2cccc(N(C)C)n2)c2nc(C(=O)NS(C)(=O)=O)cc(-c3ccc(N4CCOCC4)cc3)c12 [Compound 125, 1-[6-(dimethylamino)pyridin-2-yl]-N-(methanesulfonyl)-4-[4-(morpholin-4-yl)phenyl]-3-(propan-2-yl)-1H-pyrazolo[3,4-b]pyridine-6-carboxamide]	369.87	988	520.33	463
CC(C)c1nn(-c2cccc(OC(F)(F)F)c2)c2nc(C(=O)NS(C)(=O)=O)cc(-c3ccc(N4CCOCC4)cc3)c12 [Compound 126, N-(methanesulfonyl)-4-[4-(morpholin-4-yl)phenyl]-3-(propan-2-yl)-1-[3-(trifluoromethoxy)phenyl]-1H-pyrazolo[3,4-b]pyridine-6-carboxamide]	309.17	597	487.53	322
CC(C)c1nn(-c2ccc(F)c(F)c2)c2nc(C(=O)NS(C)(=O)=O)cc(-c3ccc(N4CCOCC4)cc3)c12 [Compound 127, 1-(3,4-difluorophenyl)-N-(methanesulfonyl)-4-[4-(morpholin-4-yl)phenyl]-3-(propan-2-yl)-1H-pyrazolo[3,4-b]pyridine-6-carboxamide]	301.45	518	449.1	252
COc1cc(F)cc(-n2nc(C)c3c(-c4c(F)cc(OC)cc4F)cc(C(=O)NS(C)(=O)=O)nc32)c1 [Compound 129, 4-(2,6-difluoro-4-methoxyphenyl)-1-(3-fluoro-5-methoxyphenyl)-N-(methanesulfonyl)-3-methyl-1H-pyrazolo[3,4-b]pyridine-6-carboxamide]	187.5	1330	307.3	790
CC(C)c1nn(-c2cc(F)cc(F)c2)c2nc(C(=O)NS(C)(=O)=O)cc(-c3ccc(N4CCC(C#N)CC4)cc3)c12 [Compound 130, 4-[4-(4-cyanopiperidin-1-yl)phenyl]-1-(3,5-difluorophenyl)-N-(methanesulfonyl)-3-(propan-2-yl)-1H-pyrazolo[3,4-b]pyridine-6-carboxamide]	318.25	541	496.9	540
CC(C)c1nn(-c2cccc(F)c2)c2nc(C(=O)NS(C)(=O)=O)cc(-c3ccc(N4CCC(C#N)CC4)cc3)c12 [Compound 131, 4-[4-(4-cyanopiperidin-1-yl)phenyl]-1-(3-fluorophenyl)-N-(methanesulfonyl)-3-(propan-2-yl)-1H-pyrazolo[3,4-b]pyridine-6-carboxamide]	314.35	430	465.1	581
